Key:
hEP2 [1] = target: T1, hEP2 (Homo sapiens, UniProt P43116); test: in-vitro binding to prostaglandin receptor (bhEP2); details: human EP2
hEP2 [2] = target: T1, hEP2; test: in-vitro activity at prostaglandin receptor (fhEP2); format: cell-based; details: functional, human EP2
hEP4 = hEP4 (Homo sapiens, UniProt P35408); test: in-vitro binding to prostaglandin receptor (bhEP4); details: human EP4
[3] = system: EP2 and EP4 receptors as compared to the FP, EP1, TP, IP and DP receptors; test: in-vitro assay for binding to and activity at prostaglandin receptors (selectivity)

T1 sequence (P43116 whole entry): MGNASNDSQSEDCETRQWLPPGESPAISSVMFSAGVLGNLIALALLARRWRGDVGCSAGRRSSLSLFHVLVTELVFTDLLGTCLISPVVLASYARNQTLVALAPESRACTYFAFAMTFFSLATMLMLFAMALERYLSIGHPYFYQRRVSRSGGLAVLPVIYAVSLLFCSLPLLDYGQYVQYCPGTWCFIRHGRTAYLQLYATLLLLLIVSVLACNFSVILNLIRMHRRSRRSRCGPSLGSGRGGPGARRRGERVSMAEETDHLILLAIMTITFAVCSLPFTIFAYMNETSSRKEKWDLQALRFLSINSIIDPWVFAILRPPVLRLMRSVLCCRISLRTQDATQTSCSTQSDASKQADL
Chain of hEP4 (P35408 whole entry): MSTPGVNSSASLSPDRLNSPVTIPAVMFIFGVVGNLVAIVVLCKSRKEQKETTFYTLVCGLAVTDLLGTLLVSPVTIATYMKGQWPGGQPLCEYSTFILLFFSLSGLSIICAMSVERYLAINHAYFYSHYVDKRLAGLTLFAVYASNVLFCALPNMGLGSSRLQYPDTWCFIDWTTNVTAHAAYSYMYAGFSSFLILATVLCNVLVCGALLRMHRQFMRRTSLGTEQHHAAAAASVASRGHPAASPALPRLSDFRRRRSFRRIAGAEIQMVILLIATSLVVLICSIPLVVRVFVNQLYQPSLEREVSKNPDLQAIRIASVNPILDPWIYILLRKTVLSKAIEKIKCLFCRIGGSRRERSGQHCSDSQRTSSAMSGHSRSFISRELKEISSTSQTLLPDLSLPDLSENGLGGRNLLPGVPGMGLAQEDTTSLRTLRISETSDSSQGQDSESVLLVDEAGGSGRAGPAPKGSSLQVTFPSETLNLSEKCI

SMILES: CCCC1(C(O)C/C=C/CN(CCCCCCC(=O)O)S(C)(=O)=O)CCC1 (stereo not shown) [Example 10, 7-[[5-Hydroxy-5-(1-propylcyclobutyl)pent-2-enyl]methanesulfonylamino]heptanoic acid]
- bhEP2 (hEP2 [1]): 5560
- fhEP2 (hEP2 [2]): 248
- bhEP4 (hEP4): 50K
- selectivity among prostaglandin receptors [3]: selective at the EP2 and EP4 receptors

From patent US7932420B2, “Sulfonamides” (Allergan, Inc., priority 2005, dated 2011)
